Reference: US20220332695A1, “UREA DERIVATIVES AS CB1 ALLOSTERIC MODULATORS” (RTI INTERNATIONAL, priority 2019, published 2022)
Where two headings read alike, the source gives them in different places.

How the values were obtained:
mouse CB1R = molecular target: T1, mouse CB1R (Mus musculus, UniProt P47746); test: [35S]GTPγS binding assay in mouse cerebellum membranes; type: biochemical
T1 construct: membranes (10 μg protein) from either ICR mouse cerebellum mice; from tissue; host or cells: cerebellum membranes of ICR mice
T1 sequence (P47746 whole entry): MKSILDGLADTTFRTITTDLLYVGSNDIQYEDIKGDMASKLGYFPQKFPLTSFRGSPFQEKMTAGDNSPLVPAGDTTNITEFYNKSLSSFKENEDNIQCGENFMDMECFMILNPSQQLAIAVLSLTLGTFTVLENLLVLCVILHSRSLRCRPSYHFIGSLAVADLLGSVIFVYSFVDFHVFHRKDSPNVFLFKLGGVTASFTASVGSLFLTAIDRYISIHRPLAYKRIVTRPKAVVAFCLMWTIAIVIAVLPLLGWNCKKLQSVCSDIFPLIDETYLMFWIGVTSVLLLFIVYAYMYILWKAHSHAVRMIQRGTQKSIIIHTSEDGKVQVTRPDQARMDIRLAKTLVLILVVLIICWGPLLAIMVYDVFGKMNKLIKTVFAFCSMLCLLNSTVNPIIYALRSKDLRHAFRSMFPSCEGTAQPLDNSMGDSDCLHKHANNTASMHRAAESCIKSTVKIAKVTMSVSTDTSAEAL

hCB1R [1] = molecular target: T2, hCB1R (Homo sapiens, UniProt P21554); test: Calcium mobilization assay, antagonist mode against CP55,940; type: cell-based; design: expressed in transfected cells; host or cells: CHO-RD-HGA16 cells (parental line from Molecular Devices)
T2 sequence (P21554 whole entry): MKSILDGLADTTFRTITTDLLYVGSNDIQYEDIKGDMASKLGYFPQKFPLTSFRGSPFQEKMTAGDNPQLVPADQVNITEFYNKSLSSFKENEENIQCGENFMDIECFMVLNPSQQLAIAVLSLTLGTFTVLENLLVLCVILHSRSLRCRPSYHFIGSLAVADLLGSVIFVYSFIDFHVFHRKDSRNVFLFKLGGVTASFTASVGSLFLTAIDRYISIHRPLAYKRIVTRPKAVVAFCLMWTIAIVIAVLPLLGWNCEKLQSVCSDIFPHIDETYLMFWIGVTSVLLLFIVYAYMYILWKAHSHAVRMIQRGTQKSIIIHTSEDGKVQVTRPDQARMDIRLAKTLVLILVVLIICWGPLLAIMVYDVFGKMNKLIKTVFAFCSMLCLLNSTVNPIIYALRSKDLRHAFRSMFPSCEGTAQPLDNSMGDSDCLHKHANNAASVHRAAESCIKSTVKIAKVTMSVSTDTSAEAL

hCB1R [2] = molecular target: T2, hCB1R; test: [35S]GTPγS binding assay in HEK cells stably expressing human CB1R; type: biochemical; design: expressed in transfected cells; host or cells: HEK (HEK293) cells, membranes; conditions: [CP] = 100 nM, mean (95% confidence interval), read-out: hCB1R [35S]GTPγS binding assay IC50
[3] = Tables 4-6, CP55,940 concentration not stated, mean (95% confidence interval), read-out: mCB1R [35S]GTPγS binding assay IC50
[4] = CHO cells expressing human CB1R, against CP55,940 (100 nM), mean ± SEM, read-out: hCB1R Calcium assay IC50

| IC50 (hCB1R [1]; [4]) [nM] | Molecule | IC50 (hCB1R [1]) [nM] | other results |
| --- | --- | --- | --- |
| 1220 ± 188 | O=C(Nc1ccc(Cl)cc1)N[C@@H]1C[C@H]1c1ccccc1 (racemic) [Compound 15, trans-1-(4-Chlorophenyl)-3-(2-phenylcyclopropyl)urea] | – | IC50 (hCB1R [2]): > 10000 nM |
| > 10000 | O=C(Nc1ccc(Cl)cc1)N[C@@H]1C[C@@H]1c1ccccc1 (relative stereo) [Compound 16, cis-1-(4-Chlorophenyl)-3-(2-phenylcyclopropyl)urea] | – | IC50 (hCB1R [2]): > 10000 nM |
| 2610 ± 548 | O=C(NC[C@@H]1C[C@H]1c1ccccc1)Nc1ccc(Cl)cc1 (relative stereo) [Compound 43, trans-1-(4-Chlorophenyl)-3-[(2-phenylcyclopropyl)methyl]urea] | – | – |
| 3700 ± 481 | O=C(NCCCc1ccccc1)Nc1ccc(Cl)cc1 [Compound 37, 3-(4-Chlorophenyl)-1-(3-phenylpropyl)urea] | – | – |
| 1580 ± 328 | O=C(NCC(F)(F)c1ccccc1)Nc1ccc(Cl)cc1 [Compound 39, 3-(4-Chlorophenyl)-1-(2,2-difluoro-2-phenylethyl)urea] | – | – |
| 5160 ± 1150 | O=C(NCC1(c2ccccc2)CC1)Nc1ccc(Cl)cc1 [Compound 41, 1-(4-Chlorophenyl)-3-[(1-phenylcyclopropyl)methyl]urea] | – | – |
| – | O=C(NCCc1ccccc1)Nc1ccc(Cl)cc1 [Compound 44, 3-(4-Chlorophenyl)-1-(2-phenylethyl)urea] | 193 ± 35 | – |
| – | CC(C)(C)c1ccc(CCNC(=O)Nc2ccc(Cl)cc2)cc1 [Compound 45, 1-[2-(4-tert-Butylphenyl)ethyl]-3-(4-chlorophenyl)urea] | 573 ± 105 | – |
| – | O=C(NCCc1ccc(-c2ccccc2)cc1)Nc1ccc(Cl)cc1 [Compound 46, 3-(4-Chlorophenyl)-1-[2-(4-phenylphenyl)ethyl]urea] | 897 ± 167 | – |
| – | O=C(NCCc1ccc([N+](=O)[O-])cc1)Nc1ccc(Cl)cc1 [Compound 48, 3-(4-Chlorophenyl)-1-[2-(4-nitrophenyl)ethyl]urea] | 87 ± 12 | IC50 (mouse CB1R; [3]): 780 nM |
| – | COc1cc(CCNC(=O)Nc2ccc(Cl)cc2)ccc1O [Compound 49, 3-(4-Chlorophenyl)-1-[2-(4-hydroxy-3-methoxyphenyl)ethyl]urea] | > 10000 | – |
| – | CN(C)c1cccc(CCNC(=O)Nc2ccc(Cl)cc2)c1 [Compound 50, 3-(4-Chlorophenyl)-1-{2-[3-(dimethylamino)phenyl]ethyl}urea] | 1680 ± 284 | IC50 (mouse CB1R): 592 nM |
| – | CN(C)c1ccc(CCNC(=O)Nc2ccc(Cl)cc2)cc1 [Compound 51, 3-(4-Chlorophenyl)-1-{2-[4-(dimethylamino)phenyl]ethyl}urea] | 323 ± 88 | IC50 (mouse CB1R): 1590 nM |
| – | CS(=O)(=O)c1ccc(CCNC(=O)Nc2ccc(Cl)cc2)cc1 [Compound 52, 3-(4-Chlorophenyl)-1-[2-(4-methanesulfonylphenyl)ethyl]urea] | > 10000 | – |
| – | COc1ccccc1CCNC(=O)Nc1ccc(Cl)cc1 [Compound 53, 3-(4-Chlorophenyl)-1-[2-(2-methoxyphenyl)ethyl]urea] | 1620 ± 248 | – |
| – | COc1cccc(CCNC(=O)Nc2ccc(Cl)cc2)c1 [Compound 54, 3-(4-Chlorophenyl)-1-[2-(3-methoxyphenyl)ethyl]urea] | 485 ± 93 | – |
| – | COc1ccc(CCNC(=O)Nc2ccc(Cl)cc2)cc1OC [Compound 56, 3-(4-Chlorophenyl)-1-[2-(3,4-dimethoxyphenyl)ethyl]urea] | 1860 ± 319 | – |
| – | O=C(NCCc1ccc(O)cc1)Nc1ccc(Cl)cc1 [Compound 58, 3-(4-Chlorophenyl)1-[2-(4-hydroxyphenyl)ethyl]urea] | > 10000 | – |
| – | Cc1ccc(CCNC(=O)Nc2ccc(Cl)cc2)cc1 [Compound 59, 3-(4-Chlorophenyl)1-[2-(4-methylphenyl)ethyl]urea] | 137 ± 21 | – |
| – | Cc1cccc(CCNC(=O)Nc2ccc(Cl)cc2)c1 [Compound 60, 3-(4-Chlorophenyl)1-[2-(3-methylphenyl)ethyl]urea] | 45 ± 9 | IC50 (mouse CB1R; [3]): 4180 nM |
| – | O=C(NCCc1ccccc1F)Nc1ccc(Cl)cc1 [Compound 61, 3-(4-Chlorophenyl)1-[2-(2-fluorophenyl)ethyl]urea] | 174 ± 27 | – |
| – | O=C(NCCc1cccc(F)c1)Nc1ccc(Cl)cc1 [Compound 62, 3-(4-Chlorophenyl)-1-[2-(3-fluorophenyl)ethyl]urea] | 53 ± 9 | IC50 (mouse CB1R; [3]): 1520 nM |

| IC50 (hCB1R [1]; [4]) [nM] | Molecule | IC50 (hCB1R [1]) [nM] | other results |
| --- | --- | --- | --- |
| – | O=C(NCCc1ccc(F)cc1)Nc1ccc(Cl)cc1 [Compound 63, 3-(4-Chlorophenyl)1-[2-(4-fluorophenyl)ethyl]urea] | 108 ± 19 | – |
| – | O=C(NCCc1ccc(F)c(F)c1)Nc1ccc(Cl)cc1 [Compound 64, 3-(4-Chlorophenyl)-1-[2-(3,4-difluorophenyl)ethyl]urea] | 47 ± 5 | – |
| – | O=C(NCCc1c(F)cc(F)cc1F)Nc1ccc(Cl)cc1 [Compound 65, 3-(4-Chlorophenyl)-1-[2-(2,4,6-trifluorophenyl)ethyl]urea] | 81 ± 9 | – |
| – | O=C(NCCc1c(F)c(F)c(F)c(F)c1F)Nc1ccc(Cl)cc1 [Compound 66, 3-(4-Chlorophenyl)1-[2-(2,3,4,5,6-pentafluorophenyl)ethyl]urea] | 34 ± 7 | – |
| – | O=C(NCCc1ccccc1Cl)Nc1ccc(Cl)cc1 [Compound 67, 3-(4-Chlorophenyl)1-[2-(2-chlorophenyl)ethyl]urea] | 237 ± 35 | – |
| – | O=C(NCCc1ccc(Cl)cc1Cl)Nc1ccc(Cl)cc1 [Compound 69, 3-(4-Chlorophenyl)1-[2-(2,4-dichlorophenyl)ethyl]urea] | 174 ± 34 | – |
| – | O=C(NCCc1c(F)cccc1Cl)Nc1ccc(Cl)cc1 [Compound 70, 3-(4-Chlorophenyl)1-[2-(2-chloro-6-fluorophenyl)ethyl]urea] | 408 ± 66 | – |
| – | O=C(NCCc1ccc(Br)cc1)Nc1ccc(Cl)cc1 [Compound 71, 3-(4-Chlorophenyl)1-[2-(4-bromophenyl)ethyl]urea] | 151 ± 20 | – |
| – | N#Cc1ccc(CCNC(=O)Nc2ccc(Cl)cc2)cc1 [Compound 72, 3-(4-Chlorophenyl)1-[2-(4-cyanophenyl)ethyl]urea] | 443 ± 53 | – |
| – | O=C(NCCc1ccccc1C(F)(F)F)Nc1ccc(Cl)cc1 [Compound 73, 3-(4-Chlorophenyl)-1-{2-[2-(trifluoromethyl)phenyl]ethyl}urea] | 143 ± 34 | – |
| – | O=C(NCCc1cccc(C(F)(F)F)c1)Nc1ccc(Cl)cc1 [Compound 74, 3-(4-Chlorophenyl)-1-{2-[3-(trifluoromethyl)phenyl]ethyl}urea] | 32 ± 7 | IC50 (mouse CB1R; [3]): 766 nM |
| – | O=C(NCCc1ccc(C(F)(F)F)cc1)Nc1ccc(Cl)cc1 [Compound 75, 3-(4-Chlorophenyl)-1-{2-[4-(trifluoromethyl)phenyl]ethyl}urea] | 194 ± 38 | – |
| > 10000 | O=C(NCCc1ccncc1)Nc1ccc(Cl)cc1 [Compound 76, 3-(4-Chlorophenyl)-1-[2-(pyridin-4-yl)ethyl]urea] | – | – |
| > 10000 | O=C(NCCc1cccnc1)Nc1ccc(Cl)cc1 [Compound 77, 3-(4-Chlorophenyl)-1-[2-(pyridin-3-yl)ethyl]urea] | – | – |
| 3630 ± 687 | O=C(NCCc1ccccn1)Nc1ccc(Cl)cc1 [Compound 78, 3-(4-Chlorophenyl)-1-[2-(pyridin-2-yl)ethyl]urea] | – | – |
| 255 ± 40 | Cc1ccc(CCNC(=O)Nc2ccc(Cl)cc2)o1 [Compound 79, 1-(4-Chlorophenyl)-3-[2-(5-methylfuran-2-yl)ethyl]urea] | – | IC50 (mouse CB1R; [3]): 2780 nM |
| > 10000 | CN1CCN(CCNC(=O)Nc2ccc(Cl)cc2)CC1 [Compound 80, 3-(4-Chlorophenyl)-1-[2-(4-methylpiperazin-1-yl)ethyl]urea] | – | – |
| > 10000 | O=C(NCCN1CCCCC1)Nc1ccc(Cl)cc1 [Compound 81, 3-(4-Chlorophenyl)-1-[2-(piperidin-1-yl)ethyl]urea] | – | – |
| > 10000 | O=C(NCCN1CCOCC1)Nc1ccc(Cl)cc1 [Compound 82, 3-(4-Chlorophenyl)-1-[2-(morpholin-4-yl)ethyl]urea] | – | – |
| > 10000 | O=C(NCCN1CCCC1)Nc1ccc(Cl)cc1 [Compound 83, 1-(4-Chlorophenyl)-3-[2-(pyrrolidin-1-yl)ethyl]urea] | – | – |
| 1830 ± 362 | CC(=O)NCCNC(=O)Nc1ccc(Cl)cc1 [Compound 84, N-(2-{[(4-Chlorophenyl)carbamoyl]amino}ethyl)acetamide] | – | – |

| Molecule | IC50 (hCB1R [1]; [4]) [nM] | IC50 (hCB1R [1]) [nM] | other results |
| --- | --- | --- | --- |
| 3-(4-Chlorophenyl)-1-[2-(3-methoxyphenyl)ethyl]urea [Compound 55] | 228 ± 45 | – | IC50 (mouse CB1R; [3]): 3720 nM |
| COc1ccc(-c2cccc(N3CCCC3)n2)cc1NC(=O)Nc1ccc(Cl)cc1 [Compound 6, 3-(4-Chlorophenyl)-1-{2-methoxy-5-[6-(pyrrolidin-1-yl)pyridin-2-yl]phenyl}urea] | 1270 | – | IC50 (hCB1R [2]): > 10000 nM |
| O=C(Nc1ccc(Cl)cc1)Nc1csc(-c2ccccc2)c1 [Compound 13, 1-(4-Chlorophenyl)-3-(5-phenylthiophen-3-yl)urea] | 60 ± 8 | – | IC50 (hCB1R [2]): 888 nM |
| O=C(Nc1ccc(Cl)cc1)Nc1ccc(-c2cccc(F)c2)s1 [Compound 19, 1-(4-Chlorophenyl)-3-[5-(3-fluorophenyl)thiophen-2-yl]urea] | 39 ± 6 | – | IC50 (hCB1R [2]): 425 nM |
| O=C(Nc1ccc(Cl)cc1)Nc1ccc(-c2cccc(Cl)c2)s1 [Compound 22, 1-(4-Chlorophenyl)-3-[5-(3-chlorophenyl)thiophen-2-yl]urea] | 40 ± 7 | – | IC50 (hCB1R [2]): 553 nM |
| O=C(Nc1ccc(Cl)cc1)Nc1ccc(-c2ccc(Cl)cc2)s1 [Compound 23, 1-(4-Chlorophenyl)-3-[5-(4-chlorophenyl)thiophen-2-yl]urea] | 43 ± 7 | – | IC50 (hCB1R [2]): 774 nM |
| O=C(Nc1ccc(Cl)cc1)Nc1ccc(-c2ccc(Cl)c(Cl)c2)s1 [Compound 24, 1-(4-Chlorophenyl)-3-[5-(3,4-dichlorophenyl)thiophen-2-yl]urea] | 111 ± 14 | – | IC50 (hCB1R [2]): 1720 nM |
